# Marks after values point to notes of the source that are not given here.
# What was measured:
# [1] = Weight of experimental animals for toxicity test; settings: SEM
# Description: (§1) The negative control group (group a) was treated with 0.2 mL of the vehicle, while the positive control group (group g) was also treated with the 20 mg/kg dosage of cyclophosphamide. […] The blood samples were collected for haematological analysis, while the liver and kidney were also collected for histopathological analysis and fixed in 10% formalin.
# [2] = test system: bone marrow cells of mice; assay: Micronucleus (MN) assay; settings: SEM
# Description: as §1
# The animals used for the subacute toxicity test were also used for the MN assay because the treatment follows the same procedure, but the positive control, cyclophosphamide (group g) for MN, is a single-dose treatment that was given intraperitoneally. The MN assay was carried out as described by Jain and Pandey ([Jain and Pandey, 2019]), four animals were sacrificed from each group by cervical dislocation, and both femurs were removed. The epiphyses were removed from the femur, and the bone marrow was flushed with fetal bovine serum (FBS) into Eppendorf tubes (1.5 mL). After a light tap to ensure appropriate cell dispersion, it was centrifuged at 2,000 rpm for 5 minutes. The pellet was suspended in another 1 mL of FBS in the Eppendorf tube, thoroughly mixed using a micropipette, and centrifuged once more at the same rate after the supernatant was discarded. Once more, the supernatant was removed, and the pellet was mixed with 0.5 mL of FBS before a few drops of the viscous mixture were dropped on a clean, oil-free slide. This drop was spread on the slide and allowed to air dry.
# The slides were stained with 0.4% May-Grunewald stain for 3-4 min and were immediately transferred into another coupling jar containing May-Grunewald and distilled water (ratio 1:1) and allowed to stain for another 3-4 min. The slides were rinsed in distilled water and allowed to dry completely. Then, it was also stained in 5% Giemsa stain for 5 min, rinsed in distilled water, and allowed to dry completely. A minimum of 1,000 cells from each mouse were examined for micronuclei in polychromatic erythrocytes (MNPCE) using a light microscope at a magnification of 1,000X (oil immersion). The relative size of the erythrocytes and the difference in staining between PCEs (bluish-purple) and normochromatic erythrocytes (NCEs, pink-orange) are used to distinguish between them.
# [3] = test system: liver and kidney of mice; assay: Subacute toxicity test: liver and kidney histopathology; settings: 20 mg/kg, positive control (group g)
# Description: as §1
# The tissues were sliced into small pieces not more than 4 mm thick and then submerged in 10% formal saline for 24 h to fix, according to the protocols of [Avwioro et al., (2010)] for histopathology investigations. The tissue processing was carried out automatically using an automatic tissue processor (Leica TP 1020) by letting the tissues pass through several reagents: 10% formal saline was used in Stations 1 and 2, and alcohol in Stations 3 through 7 was used to dehydrate the tissues. The tissues were then moved into Stations 10 to 12, which contained wax for infiltration or impregnation, after passing through Stations 8 and 9, which contained xylene for the purpose of […]. Tissues stayed in each station for 1 hour during the 12-h duration of these operations. The tissues were then covered with molten paraffin wax, allowed to cool on ice, and then sectioned at a 4-micrometer interval. These parts were picked up using clean, labeled slides and floated in a water bath set at 55°C. […]
# [4] = test system: Plasmodium berghei ANKA; assay: Mean survival time of P. berghei-infected mice; type: in vivo; settings: 4 days, monitored 30 days, n = 5, ±SEM
# Description: (§2) Twenty-five (25) albino mice (weighing 22 ± 2 g) were randomly divided into five (5) groups of five animals per group (n = 5). Parasitized blood was obtained from infected donor mouse with rising parasitaemia (≥ 20%) by cardiac puncture and the infected blood was diluted with phosphate saline glucose buffer (PSG-mouse) to attain an estimate of 5 × 10^7 red blood cells per ml. Then, 0.2 mL of inoculum containing 1 × 10^7 infected RBCs was injected into the abdominal cavity of experimental animals by intraperitoneal (ip) injection.
# (§3) All drugs were administered orally for 4 days.
# The survival rate was monitored from the first day of the treatment to 30 days. Each mouse’s mortality was monitored and recorded in days. The mean survival time (MST) of mice in each group was determined, as shown below. MST=sum of survival time of all mice in a group in days/total number of mice in a group
# [5] = test system: Plasmodium berghei infected mice; assay: Body weight, rectal temperature and packed cell volume in the suppressive test; type: in vivo, Mus musculus; settings: SEM; for Weight (g) initial / Temperature (°C) initial: before the experiment; for Weight (g) initial / Temperature (°C) initial / Weight (g) final / Temperature (°C) final: n = 5; for PCV (%) DAY 0: first day of infection; for Temperature (°C) initial / Temperature (°C) final: rectal; for Percentage change in PCV (%) DAY 0 / Percentage change in temperature (%) / Weight (g) final / PCV (%) DAY 4 / Percentage change in weight (%) / Temperature (°C) final / PCV (%) DAY 9 / Percentage change in PCV (%) DAY 9: 4 days; for Weight (g) final / Temperature (°C) final: after the experiment; for PCV (%) DAY 4: fifth day after infection; for Percentage change in weight (%): infected mice; for PCV (%) DAY 9 / Percentage change in PCV (%) DAY 9: tenth day after infection
# Description: as §2, §3
# (§4) The chemo-suppressive effect of HA in mice infected with P. berghei was assessed using Peter’s 4-day suppressive test. The mice were infected with the malaria parasite inoculum (1 × 10^7 P.berghei ANKA) on the first day of the experiment (D0) and treated as indicated in the section above on Animal Grouping and Drug Administration after 2 h post-infection. The treatment continues for another three consecutive days. Each mouse’s parasitaemia level was assessed 96 h after infection (D4). Animals in each group had their PCV, rectal temperature, and body weight measured both before and after the experiment.
# Blood samples were taken from each mouse’s tail using heparinized capillary tubes, sealed, and then put into a micro haematocrit centrifuge to calculate the packed cell volume of the blood. After being centrifuged for 5 min at 12,000 rpm, the blood samples’ PCV was calculated using the following formula: Packed Cell Volume=volume of erythrocyes in a given volume of blood/total volume of blood×100
# The body weight and rectal temperature of each mouse were also determined using a sensitive digital weighing balance and rectal thermometer, respectively.
# [6] = test system: Plasmodium berghei ANKA; assay: Peter's 4-day suppressive test; type: in vivo; settings: 4 days, D4; for Suppressive parasitemia (%): n = 5, ±SEM
# Description: as §2, §3, §4
# Parasitaemia was determined by counting the number of infected RBCs (minimum of four fields per slide) using a light microscope with an objective lens magnification power of 1,000x. Percentage parasitaemia and percentage chemo-suppression were calculated using the modified Peters and Robinson formula ([Nyandwaro et al., 2020]): % parasitemia=number of parasitized RBCs/total number of RBC count×100 % chemo−suppression=% parasitemia in negative control− % parasitemia in study group/% parasitemia in negative control×100
# [7] = 20 mg/kg/bwt single dose intraperitoneally
smiles,measurement,setting,value
"O=P1(N(CCCl)CCCl)NCCCO1 (stereo not shown) [CYP, Cyclophosphamide]",Weight (g) final,"[1]; 20 mg/kg (positive control), n = 5",24.43 ± 0.25 g
same,Percentage change in weight (%),"[1]; 20 mg/kg (positive control), toxicity test",−0.50 ± 0.34%
same,Weight (g) initial,"[1]; 20 mg/kg group (positive control), toxicity test, n = 5",24.53 ± 0.27 g
same,MnNCE (micronucleated normochromatic erythrocytes),[2]; [7],100.9 ± 11.99
same,MnPCE (micronucleated polychromatic erythrocytes),[2]; [7],225.9 ± 8.84
same,Others (other abnormalities),[2]; [7],119.2 ± 19.59
same,PCE: NCE (polychromatic erythrocytes/normochromatic erythrocytes ratio),[2]; [7],0.51 ± 0.04
same,Kidney histological presentation,[3],normal architecture
same,Liver histological presentation,[3],normal architecture
"CCCCCCCCCCCCCCCC(=O)O [HA, n-Hexadecanoic acid]",MST (days),[4]; 10 mg/kg oral,15.60 ± 2.62 ^d days
same,MST (days),[4]; 50 mg/kg oral,9.20 ± 1.16 ^d days
same,MST (days),[4]; 100 mg/kg oral,11.40 ± 1.6 ^d days
same,Weight (g) initial,[5]; 10 mg/kg group,22.88 ± 0.47 g
same,PCV (%) DAY 0,[5]; 10 mg/kg group,42.63 ± 1.25%
same,Temperature (°C) initial,[5]; 10 mg/kg group,32.26 ± 0.33 °C
same,Percentage change in PCV (%) DAY 0,[5]; 10 mg/kg oral,6.00 ± 13.99%
same,Percentage change in temperature (%),[5]; 10 mg/kg oral,−6.08 ± 1.60%
same,Weight (g) final,[5]; 10 mg/kg oral,19.24 ± 0.81 g
same,PCV (%) DAY 4,[5]; 10 mg/kg oral,43.75 ± 5.11%
same,Percentage change in weight (%),[5]; 10 mg/kg oral,−15.99 ± 2.63%
same,Temperature (°C) final,[5]; 10 mg/kg oral,30.28 ± 0.24 °C
same,PCV (%) DAY 9,[5]; 10 mg/kg oral,23.12 ± 0.46%
same,Percentage change in PCV (%) DAY 9,[5]; 10 mg/kg oral,−45.54 ± 3.26%
same,Weight (g) initial,[5]; 50 mg/kg group,24.48 ± 0.71 g
same,PCV (%) DAY 0,[5]; 50 mg/kg group,46.60 ± 2.88%
same,Temperature (°C) initial,[5]; 50 mg/kg group,32.20 ± 0.32 °C
same,Percentage change in PCV (%) DAY 0,[5]; 50 mg/kg oral,3.54 ± 3.53%
same,Percentage change in temperature (%),[5]; 50 mg/kg oral,−6.56 ± 1.17%
same,Weight (g) final,[5]; 50 mg/kg oral,22.94 ± 1.24 g
same,PCV (%) DAY 4,[5]; 50 mg/kg oral,48.20 ± 3.14%
same,Percentage change in weight (%),[5]; 50 mg/kg oral,−6.46 ± 2.75%
same,Temperature (°C) final,[5]; 50 mg/kg oral,30.08 ± 0.37 °C
same,PCV (%) DAY 9,[5]; 50 mg/kg oral,22.93 ± 4.57%
same,Percentage change in PCV (%) DAY 9,[5]; 50 mg/kg oral,−51.35 ± 8.51%
same,Weight (g) initial,[5]; 100 mg/kg group,22.19 ± 0.40 g
same,PCV (%) DAY 0,[5]; 100 mg/kg group,40.94 ± 2.51%
same,Temperature (°C) initial,[5]; 100 mg/kg group,32.20 ± 0.06 °C
same,Percentage change in PCV (%) DAY 0,[5]; 100 mg/kg oral,5.03 ± 2.78%
same,Percentage change in temperature (%),[5]; 100 mg/kg oral,−6.39 ± 1.59%
same,Weight (g) final,[5]; 100 mg/kg oral,19.99 ± 0.31 g
same,PCV (%) DAY 4,[5]; 100 mg/kg oral,43.00 ± 5.03%
same,Percentage change in weight (%),[5]; 100 mg/kg oral,−9.77 ± 2.56%
same,Temperature (°C) final,[5]; 100 mg/kg oral,30.14 ± 0.46 °C
same,PCV (%) DAY 9,[5]; 100 mg/kg oral,25.42 ± 12.08%
same,Percentage change in PCV (%) DAY 9,[5]; 100 mg/kg oral,−39.10 ± 10.67%
same,Percentage chemosuppression (%),[6]; 10 mg/kg oral,71.58%
same,Suppressive parasitemia (%),[6]; 10 mg/kg oral,1.89 ± 0.30^ab %
same,Percentage chemosuppression (%),[6]; 50 mg/kg oral,83.80%
same,Suppressive parasitemia (%),[6]; 50 mg/kg oral,1.08 ± 0.29 ^a %
same,Percentage chemosuppression (%),[6]; 100 mg/kg oral,89.74%
same,Suppressive parasitemia (%),[6]; 100 mg/kg oral,0.68 ± 0.18 ^a %
same,MnNCE (micronucleated normochromatic erythrocytes),"[2]; 2 mg/kg oral, 14 days",3.42 ± 0.30
same,MnPCE (micronucleated polychromatic erythrocytes),"[2]; 2 mg/kg oral, 14 days",6.25 ± 0.88
same,MnNCE (micronucleated normochromatic erythrocytes),"[2]; 5 mg/kg oral, 14 days",3.17 ± 0.74
same,MnPCE (micronucleated polychromatic erythrocytes),"[2]; 5 mg/kg oral, 14 days",9.08 ± 1.30
same,MnNCE (micronucleated normochromatic erythrocytes),"[2]; 10 mg/kg oral, 14 days",6.67 ± 2.25
same,MnPCE (micronucleated polychromatic erythrocytes),"[2]; 10 mg/kg oral, 14 days",11.58 ± 2.00
same,MnNCE (micronucleated normochromatic erythrocytes),"[2]; 50 mg/kg oral, 14 days",7.19 ± 0.98
same,MnPCE (micronucleated polychromatic erythrocytes),"[2]; 50 mg/kg oral, 14 days",18.86 ± 1.74
same,MnNCE (micronucleated normochromatic erythrocytes),"[2]; 100 mg/kg oral, 14 days",8.00 ± 0.84
same,MnPCE (micronucleated polychromatic erythrocytes),"[2]; 100 mg/kg oral, 14 days",23.11 ± 0.58
